Test results published in ChEMBL document CHEMBL1201862, “PubChem BioAssay data set” (2004).
Active and inactive are the calls of the source. Cut-off read from the data, not from the text of the source, for most assays here: actives have a measured EC50 and inactives only a lower limit.

Assays:
[1] = test system: Streptococcus sp. 'group A'; assay: Streptococcus pyogenes SK(-)GAS viability under kanamycin – luminescence, BacTiterGlo, confirmation, counter-screen for streptokinase expression inhibitor project, dose response (AID 1900); format: functional, organism-based
[2] = target: ATP-dependent molecular chaperone HSP82 (Candida albicans (strain WO-1) (Yeast), UniProt C4YTQ8); assay: steroid-induced GRE reporter decrease in yeast – S. cerevisiae, luminescence, Hsp90 inhibitor project, dose response (AID 2400); format: functional, cell-based;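 note: beta-galactosidase luminescence from glucocorticoid response element reporter as proxy for Hsp90 function; inhibitor potency where signal loss means Hsp90 inhibition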
Chain of ATP-dependent molecular chaperone HSP82 (C4YTQ8 whole entry): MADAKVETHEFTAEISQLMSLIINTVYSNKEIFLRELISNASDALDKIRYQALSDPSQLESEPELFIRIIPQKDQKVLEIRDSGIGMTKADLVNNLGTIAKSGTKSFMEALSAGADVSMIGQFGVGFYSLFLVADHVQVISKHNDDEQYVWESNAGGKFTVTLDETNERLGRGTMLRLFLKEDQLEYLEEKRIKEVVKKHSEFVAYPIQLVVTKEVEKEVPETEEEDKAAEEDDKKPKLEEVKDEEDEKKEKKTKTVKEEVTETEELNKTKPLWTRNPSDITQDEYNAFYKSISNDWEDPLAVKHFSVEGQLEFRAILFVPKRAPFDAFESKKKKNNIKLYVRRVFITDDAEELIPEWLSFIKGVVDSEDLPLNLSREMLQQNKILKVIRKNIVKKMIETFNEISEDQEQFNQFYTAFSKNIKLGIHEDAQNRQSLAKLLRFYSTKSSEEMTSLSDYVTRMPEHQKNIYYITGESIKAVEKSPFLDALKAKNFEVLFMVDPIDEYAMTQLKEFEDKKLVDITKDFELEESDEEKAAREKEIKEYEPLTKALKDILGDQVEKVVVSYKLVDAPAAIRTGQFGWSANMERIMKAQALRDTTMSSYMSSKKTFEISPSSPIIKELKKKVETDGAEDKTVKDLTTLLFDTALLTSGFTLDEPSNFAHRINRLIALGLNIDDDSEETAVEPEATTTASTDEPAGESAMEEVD

[3] = NIH3T3 cell viability loss – ATP luminescence, mouse fibroblasts, counter-screen, dose response (AID 2010); format: functional, cell-based;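 note: cells exposed to compound for about 90 hours before reading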
[4] = NIH-3T3 fibroblast cytotoxicity, dose response, cytotoxicity control, cell-based, fluorescence, Alamar Blue, secondary assay (AID 2327); format: functional;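 note: NIH-3T3 mouse fibroblasts cultured with fluconazole at 8 µg/mL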
[5] = target: T1, Type-1 angiotensin II receptor (Homo sapiens, UniProt P30556); assay: antagonism of angiotensin II type 1 receptor – cell-based, uHTS hits, selectivity assay for APJ receptor antagonist project, dose response (AID 463214); format: functional;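 note: antagonist potency against angiotensin II stimulated AT1 response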
T1 sequence (P30556 whole entry): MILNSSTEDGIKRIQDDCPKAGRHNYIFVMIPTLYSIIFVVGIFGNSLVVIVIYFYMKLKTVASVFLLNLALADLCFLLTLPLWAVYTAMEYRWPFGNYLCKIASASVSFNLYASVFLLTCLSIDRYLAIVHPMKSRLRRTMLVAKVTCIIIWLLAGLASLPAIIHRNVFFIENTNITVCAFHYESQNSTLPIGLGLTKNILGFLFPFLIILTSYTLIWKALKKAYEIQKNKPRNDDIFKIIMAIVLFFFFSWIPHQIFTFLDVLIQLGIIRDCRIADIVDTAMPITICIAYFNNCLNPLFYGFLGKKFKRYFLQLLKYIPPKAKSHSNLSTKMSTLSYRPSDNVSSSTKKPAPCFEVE

[6] = cells; format: functional, cell-based
[7] = alpha-synuclein stem-loop translation blockers – luminescence, H4 neuroglioblastoma cells, dose confirmation, confirmation (AID 2454); format: functional, cell-based;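 note: H4 neuroglioblastoma cells carrying an alpha-synuclein 5'UTR luciferase reporter; potency for inhibition of the luciferase signal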
[8] = Luminescence Cell-Based Dose Retest to Confirm Activators of 5'UTR Stem-Loop Driven Alpha-Synuclein mRNA Translation in H4 Neuroglioblastoma Cells. [Related pubchem assays (depositor defined):AID1813, AID1829]; format: functional
[9] = Luminescence Cell-Based Dose Response HTS to Identify Inhibitors of 5'UTR Stem-Loop Driven Prion Protein mRNA Translation in H4 Neuroglioblastoma Cells. [Related pubchem assays: 1827 (Project Summary), 1813 (Primary HTS)]; format: functional
[10] = target: Nonstructural protein 1 (Influenza A virus, UniProt Q194T2); format: functional, Influenza A virus (A/California/07/2009(H1N1))
Chain of Nonstructural protein 1 (Q194T2 whole entry): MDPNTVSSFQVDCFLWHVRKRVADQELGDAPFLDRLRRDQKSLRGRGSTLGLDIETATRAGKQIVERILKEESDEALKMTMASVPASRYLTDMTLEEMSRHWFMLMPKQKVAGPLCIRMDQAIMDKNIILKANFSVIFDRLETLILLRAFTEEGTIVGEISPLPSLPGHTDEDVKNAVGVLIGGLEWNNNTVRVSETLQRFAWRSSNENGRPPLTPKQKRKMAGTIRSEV

[11] = Luminescence Cell-Based Dose Confirmation HTS to Identify Inhibitors of 5'UTR Stem-Loop Driven Alpha-Synuclein mRNA Translation in H4 Neuroglioblastoma Cells. [Related pubchem assays: 1827 (Project Summary), 1813 (Primary HTS)]; format: functional
[12] = Luminescence Cell-Based Dose Response HTS to Identify Activators of 5'UTR Stem-Loop Driven Prion Protein mRNA Translation in H4-C Neuroglioblastoma Cells. [Related pubchem assays: 1829 (Project Summary), 1814 (Primary HTS)]; format: functional
[13] = Luminescence Cell-Based Dose Response HTS to Identify Activators of Luciferase Translation or Activity in H4-C Neuroglioblastoma Cells. [Related pubchem assays: 1829 (Project Summary), 1814 (Primary HTS)]; format: functional
[14] = luciferase reporter signal reduction – luminescence, H4-C neuroglioblastoma cells, dose response (AID 2458); format: functional, cell-based;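 note: H4 neuroglioblastoma cells stably carrying a luciferase reporter gene fusion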
[15] = Luminescence Cell-Based Dose HTS Response to Identify Inhibitors of 5'UTR Stem-Loop Driven Prion Protein mRNA Translation in H4-C Neuroglioblastoma Cells. [Related pubchem assays (depositor defined):AID1814, AID1827]; format: functional
[16] = test system: Streptococcus; assay: GAS UMAA2166 growth inhibition – luminescence, BacTiterGlo, counter-screen for streptokinase expression inhibitor project, dose response (AID 1915); format: functional, organism-based;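 note: potency for reduction of bacterial viability or growth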
[17] = target: T2, Serine/threonine-protein phosphatase (Candida dubliniensis (strain CD36 / CBS 7987 / NCPF 3949 / NRRLY-17841) (Yeast), UniProt B9W6M3); assay: blockers of CaCl2-induced CDRE-lacZ signaling – S. cerevisiae, luminescence, secondary, dose response (AID 2388); format: functional, cell-based;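 note: yeast reporter cells carrying a calcineurin-responsive lacZ construct stimulated with calcium chloride; luminescent beta-galactosidase reporter signal in whole cells rather than isolated phosphatase activity; potency for inhibition where a drop in reporter signal means calcineurin blockade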
T2 sequence (B9W6M3 whole entry): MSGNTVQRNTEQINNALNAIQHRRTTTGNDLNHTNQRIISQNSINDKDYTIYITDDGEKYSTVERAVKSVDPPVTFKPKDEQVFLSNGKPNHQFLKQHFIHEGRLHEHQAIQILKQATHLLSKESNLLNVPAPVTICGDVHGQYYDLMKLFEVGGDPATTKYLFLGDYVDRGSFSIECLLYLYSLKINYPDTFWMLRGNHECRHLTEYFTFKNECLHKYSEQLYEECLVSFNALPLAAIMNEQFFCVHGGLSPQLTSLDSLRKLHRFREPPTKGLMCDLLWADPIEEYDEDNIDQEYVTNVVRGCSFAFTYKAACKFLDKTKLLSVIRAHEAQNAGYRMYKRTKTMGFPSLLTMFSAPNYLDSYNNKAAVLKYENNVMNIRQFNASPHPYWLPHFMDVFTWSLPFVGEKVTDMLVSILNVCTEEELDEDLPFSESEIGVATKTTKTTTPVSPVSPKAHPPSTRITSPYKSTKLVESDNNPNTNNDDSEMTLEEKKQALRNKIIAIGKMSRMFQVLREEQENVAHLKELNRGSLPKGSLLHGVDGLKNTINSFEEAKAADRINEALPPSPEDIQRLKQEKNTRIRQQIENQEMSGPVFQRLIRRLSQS

[18] = alpha-synuclein stem-loop luciferase translation blockers – H4 neuroglioma cells, luminescence, confirmation (AID 1988); format: functional, cell-based
[19] = Luminescence Cell-Based Dose Response HTS to Identify Inhibitors of Luciferase Translation or Activity in H4-C Neuroglioblastoma Cells. [Related pubchem assays: 1813 (Primary HTS), 1827 (Project Summary)]; format: functional
[20] = target: Induced myeloid leukemia cell differentiation protein Mcl-1 (Homo sapiens, UniProt Q07820); format: functional
Chain of Induced myeloid leukemia cell differentiation protein Mcl-1 (Q07820 whole entry): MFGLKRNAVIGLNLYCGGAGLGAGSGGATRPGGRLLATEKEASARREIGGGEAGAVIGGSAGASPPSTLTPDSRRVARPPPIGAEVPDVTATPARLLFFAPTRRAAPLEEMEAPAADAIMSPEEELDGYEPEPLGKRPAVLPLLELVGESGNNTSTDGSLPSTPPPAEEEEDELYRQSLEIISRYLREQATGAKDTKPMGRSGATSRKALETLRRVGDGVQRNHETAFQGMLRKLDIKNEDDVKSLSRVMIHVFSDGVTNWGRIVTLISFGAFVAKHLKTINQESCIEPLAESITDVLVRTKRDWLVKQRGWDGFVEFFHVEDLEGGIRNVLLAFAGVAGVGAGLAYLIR

[21] = target: Beta-galactosidase (Escherichia coli, UniProt Q8VNN2); assay: PubChem AID 485352; format: functional
Chain of Beta-galactosidase (Q8VNN2 whole entry): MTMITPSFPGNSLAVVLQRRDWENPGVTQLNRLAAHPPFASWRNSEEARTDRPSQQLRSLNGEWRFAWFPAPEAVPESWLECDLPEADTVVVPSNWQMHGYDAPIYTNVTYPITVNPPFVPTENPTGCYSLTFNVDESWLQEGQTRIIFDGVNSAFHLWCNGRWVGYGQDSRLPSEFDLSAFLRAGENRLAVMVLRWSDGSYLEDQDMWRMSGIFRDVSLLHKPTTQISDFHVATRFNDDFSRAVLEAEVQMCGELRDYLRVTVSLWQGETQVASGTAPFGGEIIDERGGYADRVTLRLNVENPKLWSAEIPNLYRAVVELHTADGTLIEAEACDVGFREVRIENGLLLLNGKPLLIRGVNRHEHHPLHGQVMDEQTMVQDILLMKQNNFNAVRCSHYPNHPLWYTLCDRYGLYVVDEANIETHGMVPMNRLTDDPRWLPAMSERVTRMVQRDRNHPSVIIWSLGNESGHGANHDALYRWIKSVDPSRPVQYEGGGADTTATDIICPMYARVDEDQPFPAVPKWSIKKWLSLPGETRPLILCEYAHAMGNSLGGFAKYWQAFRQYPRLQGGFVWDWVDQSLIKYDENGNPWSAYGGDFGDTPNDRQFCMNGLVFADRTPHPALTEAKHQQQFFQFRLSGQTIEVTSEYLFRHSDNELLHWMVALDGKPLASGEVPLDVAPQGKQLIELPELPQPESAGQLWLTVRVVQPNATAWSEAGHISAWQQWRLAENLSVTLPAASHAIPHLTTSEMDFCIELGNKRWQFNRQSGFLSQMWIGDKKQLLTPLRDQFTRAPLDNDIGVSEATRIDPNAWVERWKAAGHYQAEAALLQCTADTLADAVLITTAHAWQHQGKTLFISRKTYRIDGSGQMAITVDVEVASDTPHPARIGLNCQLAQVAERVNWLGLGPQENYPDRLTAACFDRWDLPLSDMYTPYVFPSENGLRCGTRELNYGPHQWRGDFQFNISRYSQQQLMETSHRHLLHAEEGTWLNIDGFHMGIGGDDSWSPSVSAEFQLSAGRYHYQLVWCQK

[22] = luciferase reporter signal suppression in cells – H4 neuroglioma cells, luminescence, dose response (AID 1990); format: functional, cell-based
[23] = fluconazole-exposed Candida albicans growth modulators – fluorescence, retest, confirmation (AID 2467); format: functional, cell-based
[24] = Trypanosoma cruzi growth suppression in host cells – NIH3T3 host cells, beta-gal luminescence, confirmation (AID 2044); format: functional, cell-based;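 note: intracellular parasites grown in NIH/3T3 mouse fibroblasts as host cells; luminescent beta-galactosidase reporter signal from transgenic T. cruzi replicating inside host cells; inhibitors lower the luminescence signal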
[25] = HEK-293T viability loss after treatment – luminescence, T-cell screen hits, cytotoxicity control for TCR NF-kB inhibitor project, dose response (AID 489026); format: functional, cell-based;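 note: cells exposed to compound about 14 hours before the viability readout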
[26] = target: T3, Sphingosine 1-phosphate receptor 4 (Homo sapiens, UniProt O95977); assay: Late-stage fluorescence dose response cell-based assay to identify agonists of the Sphingosine 1-Phosphate Receptor 4 (S1P4): purchased compounds EC50. [Related pubchem assays (depositor defined):AID1509, AID1523, AID1563, AID1686, AID1701, AID1801]; format: functional
T3 sequence (O95977 whole entry): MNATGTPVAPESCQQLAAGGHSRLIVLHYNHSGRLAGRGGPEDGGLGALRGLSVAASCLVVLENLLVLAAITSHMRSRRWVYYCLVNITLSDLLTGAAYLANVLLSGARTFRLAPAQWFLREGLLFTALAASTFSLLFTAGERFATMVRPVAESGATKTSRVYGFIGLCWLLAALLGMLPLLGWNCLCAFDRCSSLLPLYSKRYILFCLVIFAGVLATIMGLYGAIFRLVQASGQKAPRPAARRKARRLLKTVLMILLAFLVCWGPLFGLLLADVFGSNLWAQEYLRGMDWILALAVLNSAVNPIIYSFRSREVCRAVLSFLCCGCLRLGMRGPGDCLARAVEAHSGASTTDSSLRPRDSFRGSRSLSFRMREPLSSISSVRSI

O=[N+]([O-])c1ccc(O)c(/C=N/Nc2ccc(Cl)nn2)c1
EC50 [1]: 305 nM (active)
EC50 [2]: > 150 µM (inactive)
EC50 [3]: < 6 µM (inconclusive)
EC50 [4]: 14.6 µM (inconclusive)
IC50 [5]: 3.63 µM (active)
EC50 [6]: 779 nM (active)
EC50 [7]: 650 nM (active)
EC50 [8]: 673 nM (inconclusive)
EC50 [9]: > 120 µM (not active)
IC50 [10]: 1.32 µM (active)
EC50 [11]: 825 nM (active)
EC50 [12]: 375 nM (inconclusive)
EC50 [13]: 1.05 µM (inconclusive)
EC50 [14]: 717 nM (active)
EC50 [15]: 904 nM (active)
EC50 [16]: 944 nM (active)
EC50 [17]: > 180 µM (inactive)
EC50 [18]: < 100 nM (active)
EC50 [19]: 925 nM (active)
IC50 [20]: 14.1 µM (active)
EC50 [21]: > 40 µM (inactive)
EC50 [22]: 9.52 µM (active)
EC50 [23]: 179 nM (active)
EC50 [24]: 633 nM (active)
IC50 [25]: > 80 µM (inactive)

Cc1ccc(Cn2nc(C)c(C(=O)OC(C)C(=O)NCc3ccccc3)c2Cl)cc1 (stereo unspecified)
EC50 [26]: > 50 µM (inactive)
